Measured values from EP4745135A1 (Gluetacs Therapeutics (Shanghai) Co., Ltd., priority 2023, dated 2025).

Columns and labels:
CK1α = molecular target: T1, CK1α (Homo sapiens, UniProt P48729+Q96SW2); test: Western blot, degradation of substrate protein in hPBMCs; assay type: cell-based
T1 construct: effects of the compounds of the present disclosure on the expression of target proteins in cells; endogenous in cells; host or cells: human PBMCs (Milecell Biotechnologies)

IKZF1 = molecular target: T2, IKZF1 (Homo sapiens, UniProt Q13422+Q96SW2); test: as above; assay type: cell-based
T2 construct: effects of the compounds of the present disclosure on the expression of target proteins in cells; endogenous in cells; host or cells: human PBMCs (Milecell Biotechnologies)
T2 sequence (Q13422 whole entry): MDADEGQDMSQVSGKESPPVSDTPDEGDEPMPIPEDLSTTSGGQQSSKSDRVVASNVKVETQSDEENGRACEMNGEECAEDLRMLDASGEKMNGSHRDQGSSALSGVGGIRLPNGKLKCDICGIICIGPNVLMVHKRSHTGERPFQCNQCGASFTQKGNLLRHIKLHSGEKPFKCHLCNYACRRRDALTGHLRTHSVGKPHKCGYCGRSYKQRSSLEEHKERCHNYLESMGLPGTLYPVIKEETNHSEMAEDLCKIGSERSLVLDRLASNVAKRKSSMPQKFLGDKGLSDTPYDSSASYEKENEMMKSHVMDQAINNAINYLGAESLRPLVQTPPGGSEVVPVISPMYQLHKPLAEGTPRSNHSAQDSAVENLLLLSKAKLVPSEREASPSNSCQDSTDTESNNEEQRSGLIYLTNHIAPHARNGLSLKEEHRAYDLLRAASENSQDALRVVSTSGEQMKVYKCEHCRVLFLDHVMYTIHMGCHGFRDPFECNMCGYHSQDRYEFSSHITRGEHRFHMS
T2 sequence (Q96SW2 whole entry): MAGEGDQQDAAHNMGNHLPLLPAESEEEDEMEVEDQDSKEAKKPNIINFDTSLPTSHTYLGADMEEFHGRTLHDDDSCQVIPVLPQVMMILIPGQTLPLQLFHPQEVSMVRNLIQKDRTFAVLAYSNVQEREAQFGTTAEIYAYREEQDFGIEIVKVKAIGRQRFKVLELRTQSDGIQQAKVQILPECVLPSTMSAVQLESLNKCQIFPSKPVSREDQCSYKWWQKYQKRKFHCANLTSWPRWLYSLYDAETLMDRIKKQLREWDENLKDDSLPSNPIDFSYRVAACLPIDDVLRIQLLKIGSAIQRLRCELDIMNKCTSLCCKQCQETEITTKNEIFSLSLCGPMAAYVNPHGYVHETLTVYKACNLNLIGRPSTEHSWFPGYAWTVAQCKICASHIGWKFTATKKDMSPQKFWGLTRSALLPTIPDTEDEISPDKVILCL
T2 sequence (Q16531 whole entry partner): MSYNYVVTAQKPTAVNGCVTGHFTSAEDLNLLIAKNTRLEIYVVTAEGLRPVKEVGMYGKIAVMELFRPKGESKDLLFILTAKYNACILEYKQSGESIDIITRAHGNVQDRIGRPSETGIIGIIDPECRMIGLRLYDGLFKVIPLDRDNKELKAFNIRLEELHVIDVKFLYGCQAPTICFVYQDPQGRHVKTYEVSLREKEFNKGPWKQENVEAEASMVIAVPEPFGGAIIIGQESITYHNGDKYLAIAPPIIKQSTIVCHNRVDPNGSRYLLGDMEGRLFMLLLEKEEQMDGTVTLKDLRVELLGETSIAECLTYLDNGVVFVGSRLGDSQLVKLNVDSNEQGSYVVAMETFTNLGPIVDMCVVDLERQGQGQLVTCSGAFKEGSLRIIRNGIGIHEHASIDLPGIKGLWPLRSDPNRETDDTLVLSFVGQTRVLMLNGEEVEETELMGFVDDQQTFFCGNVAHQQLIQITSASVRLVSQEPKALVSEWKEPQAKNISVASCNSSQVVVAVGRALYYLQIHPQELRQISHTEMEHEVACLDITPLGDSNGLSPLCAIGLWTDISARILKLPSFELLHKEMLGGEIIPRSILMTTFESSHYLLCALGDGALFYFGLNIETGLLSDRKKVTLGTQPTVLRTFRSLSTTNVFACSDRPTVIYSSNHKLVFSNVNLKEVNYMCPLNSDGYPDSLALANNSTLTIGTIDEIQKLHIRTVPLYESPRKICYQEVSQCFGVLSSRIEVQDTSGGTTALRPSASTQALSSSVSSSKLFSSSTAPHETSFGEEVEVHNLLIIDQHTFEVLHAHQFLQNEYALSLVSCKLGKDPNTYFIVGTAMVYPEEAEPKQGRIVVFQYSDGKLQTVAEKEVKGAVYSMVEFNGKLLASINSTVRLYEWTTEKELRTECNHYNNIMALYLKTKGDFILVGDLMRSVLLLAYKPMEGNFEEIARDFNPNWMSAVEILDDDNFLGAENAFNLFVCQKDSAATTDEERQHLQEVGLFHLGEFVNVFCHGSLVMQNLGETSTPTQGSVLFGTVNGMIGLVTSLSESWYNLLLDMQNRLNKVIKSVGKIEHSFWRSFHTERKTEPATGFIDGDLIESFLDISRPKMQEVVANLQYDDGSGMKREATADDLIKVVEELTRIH

IKZF2 = molecular target: T3, IKZF2 (Homo sapiens, UniProt Q96SW2+Q9UKS7); test: as above; assay type: cell-based
T3 construct: effects of the compounds of the present disclosure on the expression of target proteins in cells; endogenous in cells; host or cells: human PBMCs (Milecell Biotechnologies)
T3 sequence (Q9UKS7 whole entry): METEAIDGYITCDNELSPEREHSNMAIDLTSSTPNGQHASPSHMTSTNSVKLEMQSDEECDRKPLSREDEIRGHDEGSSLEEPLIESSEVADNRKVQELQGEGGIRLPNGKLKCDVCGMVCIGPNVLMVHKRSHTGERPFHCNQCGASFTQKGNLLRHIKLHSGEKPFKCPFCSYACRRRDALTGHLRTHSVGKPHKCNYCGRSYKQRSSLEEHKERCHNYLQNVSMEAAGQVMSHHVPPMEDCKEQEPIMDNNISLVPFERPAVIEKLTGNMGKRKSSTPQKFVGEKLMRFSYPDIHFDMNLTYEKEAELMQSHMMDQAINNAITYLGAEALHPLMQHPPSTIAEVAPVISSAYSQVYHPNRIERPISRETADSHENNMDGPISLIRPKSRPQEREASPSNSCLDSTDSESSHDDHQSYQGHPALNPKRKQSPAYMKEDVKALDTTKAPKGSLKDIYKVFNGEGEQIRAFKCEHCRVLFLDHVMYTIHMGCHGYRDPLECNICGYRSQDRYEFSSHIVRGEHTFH
T3 sequence (Q96SW2 whole entry): as the sequence (Q96SW2 whole entry) above
T3 sequence (Q16531 whole entry partner): as the sequence (Q16531 whole entry partner) above

IKZF3 = molecular target: T4, IKZF3 (Homo sapiens, UniProt Q96SW2+Q9UKT9); test: as above; assay type: cell-based
T4 construct: effects of the compounds of the present disclosure on the expression of target proteins in cells; endogenous in cells; host or cells: human PBMCs (Milecell Biotechnologies)
T4 sequence (Q9UKT9 whole entry): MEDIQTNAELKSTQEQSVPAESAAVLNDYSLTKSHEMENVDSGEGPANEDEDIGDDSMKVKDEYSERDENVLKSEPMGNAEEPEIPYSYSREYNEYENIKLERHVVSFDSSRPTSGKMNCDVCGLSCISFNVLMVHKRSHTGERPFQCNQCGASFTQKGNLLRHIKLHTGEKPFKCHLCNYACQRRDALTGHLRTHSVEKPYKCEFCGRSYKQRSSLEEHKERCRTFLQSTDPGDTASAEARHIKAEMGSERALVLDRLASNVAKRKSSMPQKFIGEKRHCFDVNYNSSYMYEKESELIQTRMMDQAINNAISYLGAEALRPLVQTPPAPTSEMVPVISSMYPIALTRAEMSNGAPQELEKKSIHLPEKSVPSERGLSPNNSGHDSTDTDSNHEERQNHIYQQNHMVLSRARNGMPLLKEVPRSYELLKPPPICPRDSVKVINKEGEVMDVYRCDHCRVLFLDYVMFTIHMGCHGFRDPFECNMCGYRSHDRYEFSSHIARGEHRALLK
T4 sequence (Q96SW2 whole entry): as the sequence (Q96SW2 whole entry) above
T4 sequence (Q16531 whole entry partner): as the sequence (Q16531 whole entry partner) above

WEE1 = molecular target: T5, WEE1 (Homo sapiens, UniProt P30291+Q96SW2); test: as above; assay type: cell-based
T5 construct: effects of the compounds of the present disclosure on the expression of target proteins in cells; endogenous in cells; host or cells: human PBMCs (Milecell Biotechnologies)
T5 sequence (P30291 whole entry): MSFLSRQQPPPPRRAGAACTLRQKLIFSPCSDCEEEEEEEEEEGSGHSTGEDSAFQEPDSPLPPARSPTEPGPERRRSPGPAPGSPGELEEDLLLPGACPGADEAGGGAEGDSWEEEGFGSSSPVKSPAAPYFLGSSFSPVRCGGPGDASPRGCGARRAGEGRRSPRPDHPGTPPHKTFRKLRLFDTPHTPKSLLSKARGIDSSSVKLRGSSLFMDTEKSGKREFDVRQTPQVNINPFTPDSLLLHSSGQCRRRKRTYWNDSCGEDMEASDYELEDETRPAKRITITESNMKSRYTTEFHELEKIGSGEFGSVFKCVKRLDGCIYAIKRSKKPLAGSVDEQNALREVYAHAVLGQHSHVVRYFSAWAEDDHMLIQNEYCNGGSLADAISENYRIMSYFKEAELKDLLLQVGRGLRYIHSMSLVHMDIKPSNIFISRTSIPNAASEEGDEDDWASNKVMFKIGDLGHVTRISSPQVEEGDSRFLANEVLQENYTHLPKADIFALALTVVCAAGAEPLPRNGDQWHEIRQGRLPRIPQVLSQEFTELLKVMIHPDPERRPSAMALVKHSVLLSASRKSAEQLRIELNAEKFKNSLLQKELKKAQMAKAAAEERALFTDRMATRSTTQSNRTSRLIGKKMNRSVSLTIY
T5 sequence (Q96SW2 whole entry): as the sequence (Q96SW2 whole entry) above
T5 sequence (Q16531 whole entry partner): as the sequence (Q16531 whole entry partner) above

GSPT1 = test: as above; assay type: cell-based, Human
[1] = molecular target: T6, human Cereblon WT GST-tagged protein (Homo sapiens, UniProt Q96SW2); test: CRBN-binding affinity, HTRF (CEREBLON BINDING kit); details: for IC50: CRBN binding, HTRF, 3 hours at room temperature, read-out: HTRF IC50; for inhibition at 0.5 µM: read-out: Inhibition Rate at 0.5 µM (%); for inhibition at 2 µM: read-out: Inhibition Rate at 2 µM (%)
T6 construct: purchased CISBIO 64BDCRBNPEH
T6 sequence (Q96SW2 whole entry): as the sequence (Q96SW2 whole entry) above

[2] = test system: Human multiple myeloma cell (MM.1S); test: Tumor cell proliferation inhibition (CellTiter-Meiluncell luminescent cell viability assay); details: for IC50 / inhibition at 0.01 µM / inhibition at 0.5 µM: Homo sapiens, MM1.S, 96 h; for IC50: read-out: Inhibitory activity (IC50, nM) on tumor cell proliferation, MM.1S; for inhibition at 0.01 µM: read-out: Inhibition Rate at 10 nM (%); for inhibition at 0.5 µM: read-out: Inhibition Rate at 500 nM (%)
[3] = Western blot, 24 hours of compound treatment, compounds tested at 50 nM and 500 nM (concentration for the table not stated)
[4] = 24 hours treatment, compounds at 50 nM and 500 nM (concentration behind the class not stated)

T1 sequence (P48729 whole entry): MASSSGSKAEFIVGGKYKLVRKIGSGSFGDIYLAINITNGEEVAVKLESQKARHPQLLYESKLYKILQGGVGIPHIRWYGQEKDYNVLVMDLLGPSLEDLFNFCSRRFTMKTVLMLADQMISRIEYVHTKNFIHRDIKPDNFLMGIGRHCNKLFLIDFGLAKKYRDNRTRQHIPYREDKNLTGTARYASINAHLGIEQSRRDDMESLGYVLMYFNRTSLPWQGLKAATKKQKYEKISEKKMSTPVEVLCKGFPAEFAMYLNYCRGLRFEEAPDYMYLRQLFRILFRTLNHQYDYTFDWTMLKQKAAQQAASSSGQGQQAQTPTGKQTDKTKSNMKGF
T1 sequence (Q96SW2 whole entry): as the sequence (Q96SW2 whole entry) above
T1 sequence (Q16531 whole entry partner): as the sequence (Q16531 whole entry partner) above

| Structure (SMILES) | inhibition at 0.5 µM [1] [%] | inhibition at 2 µM [1] [%] | CK1α substrate protein remaining % (CK1α; [3]) | IKZF 1 substrate protein remaining % (IKZF1; [3]) | IKZF2 substrate protein remaining % (IKZF2; [3]) | IKZF3 substrate protein remaining % (IKZF3; [3]) | Wee1 substrate protein remaining % (WEE1; [3]) | GSPT1 substrate protein remaining % (GSPT1; [3]) | IC50 [1] [nM] | IC50 [2] [nM] | CK1α substrate protein remaining % (CK1α; [4]) | IKZF 1 substrate protein remaining % (IKZF1; [4]) | IKZF2 substrate protein remaining % (IKZF2; [4]) | IKZF3 substrate protein remaining % (IKZF3; [4]) | Wee1 substrate protein remaining % (WEE1; [4]) | GSPT1 substrate protein remaining % (GSPT1; [4]) | inhibition at 0.01 µM [2] [%] | inhibition at 0.5 µM [2] [%] | Inhibition Rate at 10 nM (%) ([2]; MM.1S, 10 nM, 96 hours) [la6] | Inhibition Rate at 500 nM (%) ([2]; MM.1S, 96 hours) |
| --- | --- | --- | --- | --- | --- | --- | --- | --- | --- | --- | --- | --- | --- | --- | --- | --- | --- | --- | --- | --- |
| O=C1CCC(N2Cc3cc(CN4CCC(N5CCc6cc(F)ccc65)CC4)ccc3C2=S)C(=O)N1 (centres unmarked) [GT-05244, 3-(5-((4-(5-fluoroindolin-1-yl)piperidin-1-yl)methyl)-1-thioxoisoindolin-2-yl)piperidine-2,6-dione] | – | – | B (80%< substrate protein remaining %≤ 100%) | B (80%< substrate protein remaining %≤ 100%) | A (0% ≤ substrate protein remaining % ≤ 80%) | B (80%< substrate protein remaining %≤ 100%) | B (80%< substrate protein remaining %≤ 100%) | A (0% ≤ substrate protein remaining % ≤ 80%) | 100 to 500 | 100 to 500 | – | – | – | – | – | – | – | – | – | – |
| O=C1CCC(N2Cc3cc(CN4CC=C(c5ccnc6cc(F)ccc56)CC4)ccc3C2=S)C(=O)N1 (centres unmarked) [GT-05245, 3-(5-((4-(7-fluoroquinolin-4-yl)-3,6-dihydropyridin-1(2H)-yl)methyl)-1-thioxoisoindolin-2-yl)piperidine-2,6-dione] | – | – | B (80%< substrate protein remaining %≤ 100%) | B (80%< substrate protein remaining %≤ 100%) | A (0% ≤ substrate protein remaining % ≤ 80%) | A (0% ≤ substrate protein remaining % ≤ 80%) | A (0% ≤ substrate protein remaining % ≤ 80%) | A (0% ≤ substrate protein remaining % ≤ 80%) | < 100 | 10 to 50 | – | – | – | – | – | – | – | – | – | – |
| O=C1CCC(N2Cc3cc(CN4CC=C(c5c[nH]c6ncccc56)CC4)ccc3C2=S)C(=O)N1 (centres unmarked) [GT-05248, 3-(5-((4-(1H-pyrrolo[2,3-b]pyridin-3-yl)-3,6-dihydropyridin-1(2H)-yl)methyl)-1-thioxoisoindolin-2-yl)piperidine-2,6-dione] | – | – | B (80%< substrate protein remaining %≤ 100%) | A (0% ≤ substrate protein remaining % ≤ 80%) | A (0% ≤ substrate protein remaining % ≤ 80%) | A (0% ≤ substrate protein remaining % ≤ 80%) | A (0% ≤ substrate protein remaining % ≤ 80%) | A (0% ≤ substrate protein remaining % ≤ 80%) | < 100 | 50 to 100 | – | – | – | – | – | – | – | – | – | – |
| O=C1CC[C@H](N2Cc3c(OCc4ccc(CN5CCOCC5)cc4)cccc3C2=S)C(=O)N1 [GT-05712, (S)-3-(4-((4-(morpholinomethyl)benzyl)oxy)-1-thioxoisoindolin-2-yl)piperidine-2,6-dione] | – | – | – | – | – | – | – | – | < 100 | – | B (80%< substrate protein remaining %≤ 100%) | A (0% ≤ substrate protein remaining % ≤ 80%) | B (80%< substrate protein remaining %≤ 100%) | A (0% ≤ substrate protein remaining % ≤ 80%) | B (80%< substrate protein remaining %≤ 100%) | A (0% ≤ substrate protein remaining % ≤ 80%) | 50 to 60 | 70 to 80 | – | – |
| O=C1CCC(N2Cc3c(CN4CCN(C(c5ccccc5)c5cccnc5)CC4)cccc3C2=S)C(=O)N1 (centres unmarked) [GT-08193, 3-(4-((4-(phenyl(pyridin-3-yl)methyl)piperazin-1-yl)methyl)-1-thioxoisoindolin-2-yl)piperidine-2,6-dione] | 30 to 40 | 53 to 60 | B (80%< substrate protein remaining %≤ 100%) | B (80%< substrate protein remaining %≤ 100%) | A (0% ≤ substrate protein remaining % ≤ 80%) | B (80%< substrate protein remaining %≤ 100%) | A (0% ≤ substrate protein remaining % ≤ 80%) | A (0% ≤ substrate protein remaining % ≤ 80%) | – | – | – | – | – | – | – | – | 30 to 40 | 40 to 50 | – | – |
| O=C1CCC(N2Cc3cc(CN4CCN(c5ccccc5Cl)CC4)ccc3C2=S)C(=O)N1 (centres unmarked) [GT-08241, 3-(5-((4-(2-chlorophenyl)piperazin-1-yl)methyl)-1-thioxoisoindolin-2-yl)piperidine-2,6-dione] | 40 to 53 | 80 to 100 | B (80%< substrate protein remaining %≤ 100%) | B (80%< substrate protein remaining %≤ 100%) | B (80%< substrate protein remaining %≤ 100%) | B (80%< substrate protein remaining %≤ 100%) | B (80%< substrate protein remaining %≤ 100%) | A (0% ≤ substrate protein remaining % ≤ 80%) | – | – | – | – | – | – | – | – | 20 to 30 | 70 to 80 | – | – |
| O=C1CCC(N2Cc3c(CN4CC=C(c5ncccc5F)CC4)cccc3C2=S)C(=O)N1 (centres unmarked) [GT-08463, 3-(4-((3-fluoro-3',6'-dihydro-[2,4'-bipyridin]-1'(2'H)-yl)methyl)-1-thioxoisoindolin-2-yl)piperidine-2,6-dione] | 53 to 60 | 60 to 80 | B (80%< substrate protein remaining %≤ 100%) | B (80%< substrate protein remaining %≤ 100%) | B (80%< substrate protein remaining %≤ 100%) | B (80%< substrate protein remaining %≤ 100%) | A (0% ≤ substrate protein remaining % ≤ 80%) | A (0% ≤ substrate protein remaining % ≤ 80%) | – | – | – | – | – | – | – | – | 40 to 50 | – | – | la5 |

Second part, led by results:

| inhibition at 0.5 µM [1] [%] | inhibition at 2 µM [1] [%] | Structure (SMILES) | CK1α substrate protein remaining % (CK1α; [3]) | IKZF 1 substrate protein remaining % (IKZF1; [3]) | IKZF2 substrate protein remaining % (IKZF2; [3]) | IKZF3 substrate protein remaining % (IKZF3; [3]) | Wee1 substrate protein remaining % (WEE1; [3]) | GSPT1 substrate protein remaining % (GSPT1; [3]) | IC50 [1] [nM] | IC50 [2] [nM] | CK1α substrate protein remaining % (CK1α; [4]) | IKZF 1 substrate protein remaining % (IKZF1; [4]) | IKZF2 substrate protein remaining % (IKZF2; [4]) | IKZF3 substrate protein remaining % (IKZF3; [4]) | Wee1 substrate protein remaining % (WEE1; [4]) | GSPT1 substrate protein remaining % (GSPT1; [4]) | inhibition at 0.01 µM [2] [%] | inhibition at 0.5 µM [2] [%] | Inhibition Rate at 10 nM (%) ([2]; MM.1S, 10 nM, 96 hours) [la6] | Inhibition Rate at 500 nM (%) ([2]; MM.1S, 96 hours) |
| --- | --- | --- | --- | --- | --- | --- | --- | --- | --- | --- | --- | --- | --- | --- | --- | --- | --- | --- | --- | --- |
| 53 to 60 | 80 to 100 | COc1cccc(N2CCN(Cc3ccc4c(c3)CN(C3CCC(=O)NC3=O)C4=S)CC2)c1 (centres unmarked) [GT-08237, 3-(5-((4-(3-methoxyphenyl)piperazin-1-yl)methyl)-1-thioxoisoindolin-2-yl)piperidine-2,6-dione] | B (80%< substrate protein remaining %≤ 100%) | B (80%< substrate protein remaining %≤ 100%) | B (80%< substrate protein remaining %≤ 100%) | B (80%< substrate protein remaining %≤ 100%) | B (80%< substrate protein remaining %≤ 100%) | A (0% ≤ substrate protein remaining % ≤ 80%) | – | – | – | – | – | – | – | – | – | 40 to 50 | 1 | – |
| 40 to 53 | 80 to 100 | O=C1CCC(N2Cc3cc(CN4CCN(c5ccccc5Br)CC4)ccc3C2=S)C(=O)N1 (centres unmarked) [GT-08242, 3-(5-((4-(2-bromophenyl)piperazin-1-yl)methyl)-1-thioxoisoindolin-2-yl)piperidine-2,6-dione] | B (80%< substrate protein remaining %≤ 100%) | B (80%< substrate protein remaining %≤ 100%) | B (80%< substrate protein remaining %≤ 100%) | B (80%< substrate protein remaining %≤ 100%) | B (80%< substrate protein remaining %≤ 100%) | A (0% ≤ substrate protein remaining % ≤ 80%) | – | – | – | – | – | – | – | – | 30 to 40 | – | – | la8 |
